As a reminder, the MIC is the lowest concentration that inhibits growth of the organism. A high value points to a need for much substance.

Values after ≈ are worked out from the molar mass of the structure shown.

For assay [1], the system named is Streptococcus pyogenes. Kind of assay: Antimicrobial activity against Streptococcus pyogenes after 18 hrs by macrodilution test. The format is functional.
Assay [2] relates to Salmonella enterica. Kind of assay: Antimicrobial activity against Salmonella Typhimurium after 18 hrs by disk diffusion method. The class given is functional, Salmonella enterica subsp. enterica serovar Typhimurium. Background: In agar diffusion tests the substance spreads into inoculated agar from a disc or well.
Assay [3] relates to Fusarium oxysporum. Kind of assay: Antimicrobial activity against Fusarium oxysporum at 100 ug/ml after 48 hrs by disk diffusion method. Conditions: read-out: DIZ. The format is functional.
Assay [4] has as its system Pseudomonas aeruginosa. The experiment in a line: Antimicrobial activity against Pseudomonas aeruginosa after 18 hrs by macrodilution test. The format is functional.
The test system of assay [5] is Escherichia coli. Kind of assay: Antimicrobial activity against Escherichia coli after 18 hrs by macrodilution test. The format is functional.
The test system of assay [6] is Aspergillus niger. Kind of assay: Antimicrobial activity against Aspergillus niger at 100 ug/ml after 48 hrs by disk diffusion method. Conditions: read-out: DIZ. The class given is functional.
Assay [7] deals with Bacillus subtilis. The experiment in a line: Antimicrobial activity against Bacillus subtilis after 18 hrs by disk diffusion method. The format is functional.
The test system of assay [8] is Staphylococcus aureus. Kind of assay: Antimicrobial activity against Staphylococcus aureus after 18 hrs by macrodilution test. The format is functional.
The test system of assay [9] is Salmonella enterica. The experiment in a line: Antimicrobial activity against Salmonella Typhimurium after 18 hrs by macrodilution test. The format is functional, Salmonella enterica subsp. enterica serovar Typhimurium.
Assay [10] has as its system Streptococcus pyogenes. Kind of assay: Antimicrobial activity against Streptococcus pyogenes after 18 hrs by disk diffusion method. The class given is functional.
The subject of assay [11] is Pseudomonas aeruginosa. Kind of assay: Antimicrobial activity against Pseudomonas aeruginosa after 18 hrs by disk diffusion method. The format is functional.
Assay [12] has as its system Escherichia coli. Kind of assay: Antimicrobial activity against Escherichia coli after 18 hrs by disk diffusion method. The class given is functional.
Assay [13] deals with Candida albicans. Kind of assay: Antimicrobial activity against Candida albicans at 100 ug/ml after 48 hrs by disk diffusion method. The following applies: read-out: DIZ. The format is functional.
For assay [14], the system named is Nakaseomyces glabratus. Kind of assay: Antimicrobial activity against Candida glabrata at 100 ug/ml after 48 hrs by disk diffusion method. The format is functional. The following applies: read-out: DIZ.
The subject of assay [15] is Bacillus subtilis. The experiment in a line: Antimicrobial activity against Bacillus subtilis after 18 hrs by macrodilution test. The format is functional.
Assay [16] relates to Staphylococcus aureus. The experiment in a line: Antimicrobial activity against Staphylococcus aureus after 18 hrs by disk diffusion method. The format is functional.
Assay [17] deals with Penicillium. The experiment in a line: Antimicrobial activity against Penicillium at 100 ug/ml after 48 hrs by disk diffusion method. The class given is functional. The following applies: read-out: DIZ.
Assay [18] concerns Candida albicans. Kind of assay: Antimicrobial activity against Candida albicans at 30 ug after 48 hrs by disk diffusion method. The class given is functional, organism-based.
The subject of assay [19] is Aspergillus niger. Kind of assay: Antimicrobial activity against Aspergillus niger at 30 ug after 48 hrs by disk diffusion method. The format is functional, organism-based.
The test system of assay [20] is Nakaseomyces glabratus. The experiment in a line: Antimicrobial activity against Candida glabrata at 30 ug after 48 hrs by disk diffusion method. The class given is functional, organism-based.
For assay [21], the system named is Fusarium oxysporum. Kind of assay: Antimicrobial activity against Fusarium oxysporum at 30 ug after 48 hrs by disk diffusion method. The format is functional, organism-based.
Assay [22] concerns Penicillium. The experiment in a line: Antimicrobial activity against Penicillium at 30 ug after 48 hrs by disk diffusion method. The format is functional, organism-based.

Consider `CC(C)CCC[C@@H](C)[C@H]1CC[C@H]2[C@@H]3C=C4N=C(N)O[C@@]45C[C@@H](Cl)CC[C@]5(C)[C@H]3CC[C@]12C`, for which the MIC in the assay on Streptococcus pyogenes [1] came to 128 µg/mL (≈ 278 µM); in the assay with Pseudomonas aeruginosa [4], 64 µg/mL (≈ 139 µM); in the assay with Escherichia coli [5] it was 128 µg/mL (≈ 278 µM); with Staphylococcus aureus [8] it was 64 µg/mL (≈ 139 µM); against Salmonella enterica [9], 64 µg/mL (≈ 139 µM); in the assay on Bacillus subtilis [15], 64 µg/mL (≈ 139 µM). Also, the “inhibition zone (IZ)” value is recorded as 14.1 mm in the assay with Salmonella enterica [2]; 15.2 mm in the assay with Bacillus subtilis [7]; 15.1 mm with Streptococcus pyogenes [10]; 16.5 mm with Pseudomonas aeruginosa [11]; 16.1 mm in the assay on Escherichia coli [12]; 15.1 mm with Staphylococcus aureus [16]. Moreover, the zone of inhibition at 100 µg/mL with Fusarium oxysporum [3] was determined as 13.1 mm; in the assay with Aspergillus niger [6] it was 12.5 mm; in the assay with Candida albicans [13], 21.5 mm; in the assay on Nakaseomyces glabratus [14], 15.2 mm; with Penicillium [17] it was 16.2 mm.

For `CC(=O)O[C@H]1CC[C@]2(C)[C@H]3CC[C@]4(C)[C@@H]([C@H](C)CCCC(C)C)CC[C@H]4[C@@H]3C=C3N=C(N)O[C@@]32C1`, the MIC came to 128 µg/mL (≈ 264 µM) against Streptococcus pyogenes [1]; 64 µg/mL (≈ 132 µM) in the assay with Pseudomonas aeruginosa [4]; 128 µg/mL (≈ 264 µM) in the assay with Escherichia coli [5]; 128 µg/mL (≈ 264 µM) in the assay with Staphylococcus aureus [8]; 128 µg/mL (≈ 264 µM) in the assay with Salmonella enterica [9]; 32 µg/mL (≈ 66 µM) with Bacillus subtilis [15]. For the same compound, the “inhibition zone (IZ)” value in the assay on Salmonella enterica [2] is 13.2 mm; in the assay with Bacillus subtilis [7], 13.1 mm; in the assay with Streptococcus pyogenes [10] it was 12.5 mm; with Pseudomonas aeruginosa [11] it was 15 mm; with Escherichia coli [12], 14.1 mm; in the assay with Staphylococcus aureus [16] it was 12.8 mm. Moreover, the zone of inhibition at 100 µg/mL is 12.1 mm in the assay on Fusarium oxysporum [3]; 11.2 mm with Aspergillus niger [6]; 20.1 mm in the assay with Candida albicans [13]; 10.1 mm in the assay with Nakaseomyces glabratus [14]; 15.1 mm with Penicillium [17].

As for NYSTATIN, the inhibition zone (IZ) with Candida albicans [18] stood at 29 mm; in the assay with Aspergillus niger [19], 19.5 mm; in the assay on Nakaseomyces glabratus [20], 29 mm; with Fusarium oxysporum [21], 19.5 mm; in the assay on Penicillium [22], 24.5 mm.

`O=C(N[C@H](CO)[C@H](O)c1ccc([N+](=O)[O-])cc1)C(Cl)Cl` [CHLORAMPHENICOL]: the MIC against Streptococcus pyogenes [1], against Pseudomonas aeruginosa [4], with Escherichia coli [5], against Staphylococcus aureus [8], in the assay on Salmonella enterica [9] and with Bacillus subtilis [15] was 32 µg/mL (≈ 99 µM) throughout. The “inhibition zone (IZ)” value in the assay on Salmonella enterica [2] is on record as 25.2 mm; in the assay on Bacillus subtilis [7] it was 26.8 mm; in the assay with Streptococcus pyogenes [10], 22.4 mm; in the assay with Pseudomonas aeruginosa [11], 17.1 mm; in the assay on Escherichia coli [12], 20 mm; in the assay with Staphylococcus aureus [16], 21 mm.

For the compound `CC(C)CCC[C@@H](C)[C@H]1CC[C@H]2[C@@H]3C=C4N=C(N)O[C@@]45CCCC[C@]5(C)[C@H]3CC[C@]12C`, the MIC in the assay with Streptococcus pyogenes [1] came to 256 µg/mL (≈ 600 µM); in the assay with Pseudomonas aeruginosa [4], 128 µg/mL (≈ 300 µM); in the assay with Escherichia coli [5], 256 µg/mL (≈ 600 µM); in the assay with Staphylococcus aureus [8], 128 µg/mL (≈ 300 µM); against Salmonella enterica [9], 128 µg/mL (≈ 300 µM); against Bacillus subtilis [15], 128 µg/mL (≈ 300 µM). Moreover, the “inhibition zone (IZ)” value with Salmonella enterica [2] is 11.5 mm; with Bacillus subtilis [7], 12.1 mm; with Streptococcus pyogenes [10], 11.2 mm; with Pseudomonas aeruginosa [11], 13.5 mm; with Escherichia coli [12], 13.1 mm; in the assay on Staphylococcus aureus [16], 10.8 mm. Besides, the zone of inhibition at 100 µg/mL is 10.1 mm with Fusarium oxysporum [3]; 10.1 mm in the assay on Aspergillus niger [6]; 19.1 mm in the assay on Candida albicans [13]; 9.2 mm in the assay with Nakaseomyces glabratus [14]; 14.5 mm in the assay with Penicillium [17].

For the origin of these results see ChEMBL document CHEMBL1154851, “Synthesis, antibacterial and antifungal activities of 6,5 fused steroidal oxazoles in cholestane series” (2010).
